Source: patent publication US12275684B2, “Methods for making and using endoxifen” (Atossa Therapeutics, Inc., priority 2017, dated 2025)
Like-named read-outs stand apart in the source and are kept apart here.

Assay: Placebo controlled, dose escalation pharmacokinetic study of oral (Z)-Endoxifen capsules (serum endoxifen; incl. accumulation ratios and dose linearity)
Format: in vivo, human
Parameters: Serum concentration, Maximum / Serum concentration, GeoMean / Serum concentration, Mean / Serum concentration, Median / terminal rate constant: unit not given here
Settings: for Serum concentration, GeoMean / Serum concentration, Maximum / Serum concentration, Mean / Serum concentration, Median / Serum concentration, Minimum: 2 mg (n = 6)
Source text: An objective of the study was to assess the safety and tolerability of oral (Z)-Endoxifen when administered […] orally as a capsule to healthy female volunteers. A secondary objective was to assess the pharmacokinetics of multiple doses of oral (Z)-Endoxifen in the subjects.
Generally, healthy female volunteers aged ≥18 years and ≤65 years were enrolled. 24 participants were enrolled in 3 cohorts and will be administered study drug orally. Three dose levels of orally administered (Z)-Endoxifen were investigated in 3 cohorts. In each cohort participants were randomized to receive an oral (Z)-Endoxifen or placebo in a blinded fashion. Enteric-resistant capsules used in the study were designed as delayed release capsules to resist rupture for at least 30 minutes, but typically, for about 2 hours, under gastric conditions and then open fully in intestinal fluid (DRCaps; Capsugel, a Lonza Company, USA). Enteric-resistant (Swedish Orange size Zero (0); Capsugel, USA) DRCaps capsules manually filled with 1, 2 or 4 mg of (Z)-endoxifen neat in compliance with GMP requirements were used. Placebo capsules contained microcrystalline cellulose an inert common capsule and tablet excipient.
Each cohort enrolled 8 participants, with 6 participants receiving (Z)-Endoxifen 1 mg capsules orally at 1 mg (Cohort 1), 2 mg (Cohort 2) or 4 mg (Cohort 3) doses and 2 participants receiving matching placebo capsules. In Cohort 1 (Dose Level=1 mg) two participants (sentinels) were dosed 24 hours prior to the remaining participants. One sentinel was dosed with (Z)-Endoxifen and the other with placebo. The remaining six participants in Cohort 1 were dosed as no safety concerns were identified in the sentinel participants. The non-sentinel participants in Cohort 1 were admitted to the clinical research facility at least one day later than the sentinels. There were no sentinels in Cohorts 2 and 3.
Participant engagement in this study was for a period of 56 days. These included a 28 day screening period, and a 7 day post treatment period for Pharmacokinetic (PK) sampling. There were two confinement periods, one at the beginning and one at the end of the dosing periods. Participants were confined to the clinical facility on Days-1 through to Day 2 and Days 21 and 22. If participants were to experience any clinically significant adverse events during the study, they would have been required to remain in the clinical facility for further observation at the discretion of the Principal Investigator (PI).
Healthy female volunteers were screened within 28 days prior to commencement of dosing. Participants were admitted to the clinical facility on Day-1 for up to 3 days. The first dose of (Z)-Endoxifen or placebo capsules was administered on Day 1. Following completion of all safety assessments and sampling for PK analyses, participants were discharged from the clinical facility on Day 2. The first dose on Day 1 was followed by a 6-day treatment free period (Days 2-7). Each participant returned to the clinical facility for PK blood draws and safety assessments during the treatment free period on study Days 4 and 6. On Day 8 participants commenced daily administration of (Z)-Endoxifen capsules or placebo capsules for 14 consecutive days (Days 8-21). Participants were supplied with study drug capsules and asked to self administer daily. Participants visited the clinical facility on Days 11, 14 and 17, prior to dose administration, for PK blood draws and safety assessments. On the morning of Day 21 each participant returned to the clinical facility prior to dose administration and were confined to the facility until Day 22 to allow for the collection of PK blood draws and safety assessments. The Day 21 dose was the last administration of study drug. Participants were discharged from the clinical facility on Day 22 and returned for PK blood draws and safety assessments on study Days 24, 26, and 28. […]

## CC/C(=C(\c1ccc(O)cc1)c1ccc(OCCNC)cc1)c1ccccc1 [(Z)-Endoxifen, (Z)-4-(1-(4-(2-(methylamino)ethoxy)phenyl)-2-phenylbut-1-enyl) phenol]
1 mg, Day 1 Pre-dose, read-out: Serum concentration, GeoMean
  concentration at 10 h: 2.68 nM
1 mg, Day 1 Pre-dose, read-out: Serum concentration, Max
  concentration at 10 h: 2.68 nM
1 mg, Day 1 Pre-dose, read-out: Serum concentration, Mean
  concentration at 10 h: 2.68 nM
1 mg, Day 1 Pre-dose, read-out: Serum concentration, Median
  concentration at 10 h: 2.68 nM
1 mg, Day 1 Pre-dose, read-out: Serum concentration, Min
  concentration at 10 h: 2.68 nM
1 mg, Day 8 Pre-dose, read-out: Serum concentration, GeoMean
  concentration at 10 h: 2.68 nM
1 mg, Day 8 Pre-dose, read-out: Serum concentration, Max
  concentration at 10 h: 2.68 nM
1 mg, Day 8 Pre-dose, read-out: Serum concentration, Mean
  concentration at 10 h: 2.68 nM
1 mg, Day 8 Pre-dose, read-out: Serum concentration, Median
  concentration at 10 h: 2.68 nM
1 mg, Day 8 Pre-dose, read-out: Serum concentration, Min
  concentration at 10 h: 2.68 nM
1 mg, Day 11 Pre-Dose, read-out: Serum concentration, GeoMean
  concentration at 10 h: 37.7 nM
1 mg, Day 11 Pre-Dose, read-out: Serum concentration, Max
  concentration at 10 h: 45.5 nM
1 mg, Day 11 Pre-Dose, read-out: Serum concentration, Mean
  concentration at 10 h: 38.5 nM
1 mg, Day 11 Pre-Dose, read-out: Serum concentration, Median
  concentration at 10 h: 42.8 nM
1 mg, Day 11 Pre-Dose, read-out: Serum concentration, Min
  concentration at 10 h: 26.8 nM
1 mg, Day 14 Pre-dose, read-out: Serum concentration, GeoMean
  concentration at 10 h: 37.6 nM
1 mg, Day 14 Pre-dose, read-out: Serum concentration, Max
  concentration at 10 h: 75.0 nM
1 mg, Day 14 Pre-dose, read-out: Serum concentration, Mean
  concentration at 10 h: 43.4 nM
1 mg, Day 14 Pre-dose, read-out: Serum concentration, Median
  concentration at 10 h: 40.2 nM
1 mg, Day 14 Pre-dose, read-out: Serum concentration, Min
  concentration at 10 h: 13.4 nM
1 mg, Day 17 Pre-Dose, read-out: Serum concentration, GeoMean
  concentration at 10 h: 38.5 nM
1 mg, Day 17 Pre-Dose, read-out: Serum concentration, Max
  concentration at 10 h: 64.2 nM
1 mg, Day 17 Pre-Dose, read-out: Serum concentration, Mean
  concentration at 10 h: 43.4 nM
1 mg, Day 17 Pre-Dose, read-out: Serum concentration, Median
  concentration at 10 h: 45.5 nM
1 mg, Day 17 Pre-Dose, read-out: Serum concentration, Min
  concentration at 10 h: 13.4 nM
Day 1 Pre-dose
  Serum concentration, GeoMean: 1.00
  Serum concentration, Maximum: 1.00
  Serum concentration, Mean: 0.17
  Serum concentration, Median: 0.00
  Serum concentration, Minimum: 0.00
Day 4 Hr 72
  Serum concentration, GeoMean: 5.47
  Serum concentration, Maximum: 8.00
  Serum concentration, Mean: 5.67
  Serum concentration, Median: 5.50
Day 6 Hr 120
  Serum concentration, GeoMean: 2.55
  Serum concentration, Maximum: 4.00
  Serum concentration, Mean: 2.80
  Serum concentration, Median: 3.00
Day 8 Pre-dose
  Serum concentration, GeoMean: 1.00
  Serum concentration, Maximum: 1.00
  Serum concentration, Mean: 0.83
  Serum concentration, Median: 1.00
Day 11 Pre-Dose
  Serum concentration, GeoMean: 22.6
  Serum concentration, Maximum: 28.0
  Serum concentration, Mean: 22.8
  Serum concentration, Median: 22.5
Day 14 Pre-dose
  Serum concentration, GeoMean: 28.9
  Serum concentration, Maximum: 37.0
  Serum concentration, Mean: 29.2
  Serum concentration, Median: 28.5
Day 17 Pre-Dose
  Serum concentration, GeoMean: 31.5
  Serum concentration, Maximum: 47.0
  Serum concentration, Mean: 32.2
  Serum concentration, Median: 29.5
Day 1 hr 0.5
  Serum concentration, Maximum: 0.00
  Serum concentration, Mean: 0.00
  Serum concentration, Median: 0.00
Day 1 hr 1
  Serum concentration, GeoMean: 2.35
  Serum concentration, Maximum: 4.00
  Serum concentration, Mean: 2.17
  Serum concentration, Median: 2.50
Day 1 hr 2
  Serum concentration, GeoMean: 9.55
  Serum concentration, Maximum: 16.0
  Serum concentration, Mean: 10.2
  Serum concentration, Median: 10.0
Day 1 hr 3
  Serum concentration, GeoMean: 14.3
  Serum concentration, Maximum: 17.0
  Serum concentration, Mean: 14.5
  Serum concentration, Median: 14.5
Day 1 hr 4
  Serum concentration, GeoMean: 16.6
  Serum concentration, Maximum: 22.0
  Serum concentration, Mean: 17.2
  Serum concentration, Median: 17.5
Day 1 hr 5
  Serum concentration, GeoMean: 16.8
  Serum concentration, Maximum: 22.0
  Serum concentration, Mean: 17.2
  Serum concentration, Median: 17.0
Day 1 hr 8
  Serum concentration, GeoMean: 13.8
  Serum concentration, Maximum: 19.0
  Serum concentration, Mean: 14.3
  Serum concentration, Median: 14.5
Day 1 hr 10
  Serum concentration, GeoMean: 14.2
  Serum concentration, Maximum: 19.0
  Serum concentration, Mean: 14.5
  Serum concentration, Median: 14.5
Day 1 hr 12
  Serum concentration, GeoMean: 14.1
  Serum concentration, Maximum: 18.0
  Serum concentration, Mean: 14.2
  Serum concentration, Median: 14.0
  Serum concentration, Minimum: 12.0
Day 1 hr 24
  Serum concentration, GeoMean: 10.1
  Serum concentration, Maximum: 13.0
  Serum concentration, Mean: 10.3
  Serum concentration, Median: 10.5
Day 1, 1 mg, N = 5
  AUC0-inf, Max: 739 ng·h/mL
  AUC0-inf, Min: 441 ng·h/mL
  AUC24hr, Max: 183 ng·h/mL
  AUC24hr, Min: 102 ng·h/mL
  AUCTlast, Max: 582 ng·h/mL
  AUCTlast, Min: 367 ng·h/mL
  CL/F, GeoMean: 1.79 L/h
  CL/F, Max: 2.27 L/h
  CL/F, Mean: 1.82 L/h
  CL/F, Median: 1.87 L/h
